Measured values published in the supplement of paper PMC9013687.

How the values were obtained:
Danio rerio embryo [1] = conditions: exposure time: 4 dpf
Protocol: (§1)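 Zebrafish embryos (UFZ-OBI strain) were exposed from 2 hpf for 48 h (2 dpf) or 96 h (4 dpf) at 28 °C; spontaneous tail coiling was scored at 25 hpf. Morphological features from automated image analysis (FishInspector), heart rate and locomotor response were fitted with drc models. Quantal endpoints were dichotomised at 2.5 SD from controls and fitted with a log-logistic model; heart rate, pigmentation and STC were normalised to the replicate control mean. Betamethasone was tested as betamethasone dipropionate, diflorasone as diflorasone diacetate.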

Danio rerio embryo [2] = test system: Danio rerio embryo
Protocol: as §1

Danio rerio embryo [3] = test system: Danio rerio embryo; remark: listed apart in the source
Protocol: as §1

Danio rerio embryo [4] = assay: EC50 Head size_Decrease
Protocol: as §1

Danio rerio embryo [5] = assay: EC10 Heart rate; higher = less potent
Protocol: as §1

Danio rerio embryo [6] = assay: EC10 Lack of SB; higher = less potent; conditions: exposure time: 4 dpf
Protocol: as §1

Danio rerio embryo [7] = assay: EC20 Lack of SB; higher = less potent; conditions: exposure time: 4 dpf
Protocol: as §1

Danio rerio embryo [8] = assay: EC20 Heart rate; higher = less potent
Protocol: as §1

Danio rerio embryo [9] = assay: EC10 STC decrease; higher = less potent; conditions: exposure time: 25 h
Protocol: as §1

Danio rerio embryo [10] = assay: EC20 STC decrease; higher = less potent; conditions: exposure time: 25 h
Protocol: as §1

Danio rerio embryo [11] = assay: EC20 Head size_Decrease; higher = less potent
Protocol: as §1

Danio rerio embryo [12] = assay: EC20 LMR ligth increase; higher = less potent; conditions: exposure time: 4 dpf
Protocol: as §1

Danio rerio embryo [13] = assay: EC10 Head size_Decrease; higher = less potent
Protocol: as §1

Danio rerio embryo [14] = assay: EC10 LMR ligth increase; higher = less potent; conditions: exposure time: 4 dpf
Protocol: as §1

Danio rerio embryo [15] = assay: EC10 Pigmentation increase; higher = less potent; conditions: exposure time: 4 dpf
Protocol: as §1

Danio rerio embryo [16] = assay: EC10 Pigmentation decrease; higher = less potent
Protocol: as §1

Danio rerio embryo [17] = assay: EC20 Pigmentation decrease; higher = less potent
Protocol: as §1

Danio rerio embryo [18] = assay: EC20 Pigmentation increase; higher = less potent; conditions: exposure time: 4 dpf
Protocol: as §1

Danio rerio embryo [19] = assay: EC50 Eye size_Decrease
Protocol: as §1

Danio rerio embryo [20] = assay: EC50 Head-trunk angle_Decrease; conditions: exposure time: 2 dpf
Protocol: as §1

Danio rerio embryo [21] = assay: EC50 Mandibular arch distance_Decrease; conditions: exposure time: 4 dpf
Protocol: as §1

Danio rerio embryo [22] = assay: EC10 Eye size_Decrease; higher = less potent
Protocol: as §1

Danio rerio embryo [23] = assay: EC20 Head-trunk angle_Decrease; higher = less potent; conditions: exposure time: 2 dpf
Protocol: as §1

Danio rerio embryo [24] = assay: EC10 Head-trunk angle_Decrease; higher = less potent; conditions: exposure time: 2 dpf
Protocol: as §1

Danio rerio embryo [25] = assay: EC20 Mandibular arch distance_Decrease; higher = less potent; conditions: exposure time: 4 dpf
Protocol: as §1

Danio rerio embryo [26] = assay: EC10 Mandibular arch distance_Decrease; higher = less potent; conditions: exposure time: 4 dpf
Protocol: as §1

Danio rerio embryo [27] = assay: EC50 Head trunk angle_Decrease; conditions: exposure time: 2 dpf
Protocol: as §1

Danio rerio embryo [28] = assay: EC20 STC bell shape; higher = less potent; conditions: exposure time: 25 h
Protocol: as §1

Danio rerio embryo [29] = assay: EC10 STC bell shape; higher = less potent; conditions: exposure time: 25 h
Protocol: as §1

Danio rerio embryo [30] = assay: EC10 Head trunk angle_Decrease; higher = less potent; conditions: exposure time: 2 dpf
Protocol: as §1

Danio rerio embryo [31] = assay: EC10 LMR ligth decrease; higher = less potent; conditions: exposure time: 4 dpf
Protocol: as §1

Danio rerio embryo [32] = assay: EC20 LMR ligth decrease; higher = less potent; conditions: exposure time: 4 dpf
Protocol: as §1

| Compound | EC50 Lack of SB (Danio rerio embryo [1]) | EC50 Pigmentation decrease (Danio rerio embryo [2]; exposure time: 2 dpf) | EC50 Heart rate (Danio rerio embryo [3]; exposure time: 2 dpf) | EC50 Heart rate (Danio rerio embryo [3]; exposure time: 4 dpf) | EC10 Heart rate (Danio rerio embryo [5]; exposure time: 2 dpf) | EC10 Heart rate (Danio rerio embryo [5]; exposure time: 4 dpf) | EC10 Lack of SB (Danio rerio embryo [6]) | EC20 Lack of SB (Danio rerio embryo [7]) | EC20 Heart rate (Danio rerio embryo [8]; exposure time: 2 dpf) | EC20 Heart rate (Danio rerio embryo [8]; exposure time: 4 dpf) | EC10 STC decrease (Danio rerio embryo [9]) | EC20 STC decrease (Danio rerio embryo [10]) | EC10 Pigmentation decrease (Danio rerio embryo [16]; exposure time: 2 dpf) | EC20 Pigmentation decrease (Danio rerio embryo [17]; exposure time: 2 dpf) | EC50 Eye size Decrease (Danio rerio embryo [19]; exposure time: 2 dpf) | EC50 Eye size Decrease (Danio rerio embryo [19]; exposure time: 4 dpf) | EC50 Head size Decrease (Danio rerio embryo [4]; exposure time: 2 dpf) | EC50 Mandibular arch distance Decrease (Danio rerio embryo [21]) | EC10 Eye size Decrease (Danio rerio embryo [22]; exposure time: 2 dpf) | EC10 Eye size Decrease (Danio rerio embryo [22]; exposure time: 4 dpf) | also measured |
| --- | --- | --- | --- | --- | --- | --- | --- | --- | --- | --- | --- | --- | --- | --- | --- | --- | --- | --- | --- | --- | --- |
| CCCNCC(O)COc1ccccc1C(=O)CCc1ccccc1 (stereo not drawn) [Propafenone] | 7.65 µM | 62.3 µM | 52.1 µM | 16.8 µM | 1 µM | 2.29 µM | 6.08 µM | 6.61 µM | 4.31 µM | 4.78 µM | 6.36 µM | 13.3 µM | 43 µM | 49.3 µM | – | – | – | – | – | – | EC50 Head size Decrease (Danio rerio embryo [4]; exposure time: 4 dpf): 31 µM; EC20 Head size Decrease (Danio rerio embryo [11]; exposure time: 4 dpf): 18.3 µM; EC20 LMR ligth increase (Danio rerio embryo [12]): 17.3 µM; EC10 Head size Decrease (Danio rerio embryo [13]; exposure time: 4 dpf): 13.4 µM; EC10 LMR ligth increase (Danio rerio embryo [14]): 16.4 µM; EC10 Pigmentation increase (Danio rerio embryo [15]): 23.1 µM; EC20 Pigmentation increase (Danio rerio embryo [18]): 26.5 µM |
| C[Si](Cn1cncn1)(c1ccc(F)cc1)c1ccc(F)cc1 [Flusilazole] | 2.78 µM | – | – | – | 16 µM | 4.6 µM | 1.64 µM | 1.99 µM | 26.2 µM | 7.13 µM | 2.72 µM | 4.11 µM | – | – | 22.3 µM | 5.51 µM | 30.1 µM | 11.4 µM | 21.5 µM | 4.51 µM | EC50 Pigmentation decrease (Danio rerio embryo [2]; exposure time: 4 dpf): 22.2 µM; EC50 Head-trunk angle Decrease (Danio rerio embryo [20]): 11.8 µM; EC20 Head size Decrease (Danio rerio embryo [11]; exposure time: 2 dpf): 28.8 µM; EC10 Head size Decrease (Danio rerio embryo [13]; exposure time: 2 dpf): 28.1 µM; EC10 Pigmentation decrease (Danio rerio embryo [16]; exposure time: 4 dpf): 3.38 µM; EC20 Pigmentation decrease (Danio rerio embryo [17]; exposure time: 4 dpf): 7.16 µM; EC20 Head-trunk angle Decrease (Danio rerio embryo [23]): 6.28 µM; EC10 Head-trunk angle Decrease (Danio rerio embryo [24]): 4.35 µM; EC20 Mandibular arch distance Decrease (Danio rerio embryo [25]): 7.71 µM; EC10 Mandibular arch distance Decrease (Danio rerio embryo [26]): 6.12 µM |
| CCCCC(O)(Cn1cncn1)c1ccc(Cl)cc1Cl (stereo not drawn) [Hexaconazole] | 10.3 µM | 22.6 µM | 39.8 µM | – | 8.31 µM | 5.53 µM | 6.28 µM | 7.52 µM | 14.8 µM | 11.1 µM | – | – | 17.8 µM | 19.4 µM | 56.1 µM | 15.1 µM | 54.3 µM | 37.1 µM | 44.9 µM | 10.7 µM | EC50 Head trunk angle Decrease (Danio rerio embryo [27]): 23.3 µM; EC20 STC bell shape (Danio rerio embryo [28]): 19.2 µM; EC10 STC bell shape (Danio rerio embryo [29]): 17.5 µM; EC20 Head size Decrease (Danio rerio embryo [11]; exposure time: 2 dpf): 40.3 µM; EC10 Head size Decrease (Danio rerio embryo [13]; exposure time: 2 dpf): 33.8 µM; EC10 Head trunk angle Decrease (Danio rerio embryo [30]): 12.8 µM; EC20 Mandibular arch distance Decrease (Danio rerio embryo [25]): 24.9 µM; EC10 Mandibular arch distance Decrease (Danio rerio embryo [26]): 19.8 µM |
| CSc1nc2cc(Cl)c(Oc3cccc(Cl)c3Cl)cc2[nH]1 [Triclabendazole] | 0.516 µM | 1.92 µM | 3.71 µM | 1.11 µM | 0.345 µM | 0.19 µM | 0.462 µM | 0.481 µM | 0.829 µM | 0.364 µM | 0.00111 µM | 0.00782 µM | 1.44 µM | 1.6 µM | 1.72 µM | 0.644 µM | – | – | 1.27 µM | 0.448 µM | EC50 Head trunk angle Decrease (Danio rerio embryo [27]): 2.05 µM; EC10 LMR ligth decrease (Danio rerio embryo [31]): 0.783 µM; EC20 LMR ligth decrease (Danio rerio embryo [32]): 0.792 µM; EC10 Pigmentation increase (Danio rerio embryo [15]): 0.654 µM; EC20 Pigmentation increase (Danio rerio embryo [18]): 0.667 µM; EC10 Head trunk angle Decrease (Danio rerio embryo [30]): 1.39 µM |
| CC(C)(C)C(O)C(Oc1ccc(Cl)cc1)n1cncn1 (stereo not drawn) [Triadimenol] | 20.9 µM | 152 µM | 56.8 µM | 194 µM | 13.7 µM | 64.4 µM | 19.6 µM | 20.1 µM | 23.2 µM | 96.8 µM | 118 µM | 135 µM | 76.2 µM | 98.2 µM | 200 µM | 108 µM | 177 µM | 169 µM | 138 µM | 81.1 µM | EC50 Head trunk angle Decrease (Danio rerio embryo [27]): 152 µM; EC20 Head size Decrease (Danio rerio embryo [11]; exposure time: 2 dpf): 147 µM; EC20 LMR ligth increase (Danio rerio embryo [12]): 17.3 µM; EC10 Head size Decrease (Danio rerio embryo [13]; exposure time: 2 dpf): 132 µM; EC10 LMR ligth increase (Danio rerio embryo [14]): 8.63 µM; EC10 Head trunk angle Decrease (Danio rerio embryo [30]): 94.5 µM; EC20 Mandibular arch distance Decrease (Danio rerio embryo [25]): 133 µM; EC10 Mandibular arch distance Decrease (Danio rerio embryo [26]): 116 µM |
